Test results as given in PubChem BioAssay (NCI).
“And” between values parts separate entries of the source, which are not always exact repeats. Equal values may be shown once.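 Cells were grown in 96-well plates and exposed to each compound for 48 hours at five concentrations; endpoints were interpolated linearly between bracketing concentrations, or set to the highest concentration if not reached. Abbreviation: GI50, concentration required for 50% inhibition of growth. TGI denotes the concentration required for complete inhibition of growth.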

Columns and labels:
Experiment in all cases: growth of human tumour cells (NCI), 48 h
[1] = test system: SN12C renal
[2] = test system: HL-60(TB) leukemia
[3] = test system: MOLT-4 leukemia
[4] = test system: OVCAR-5 ovarian
[5] = test system: SNB-19 CNS
[6] = test system: SK-OV-3 ovarian
[7] = test system: NCI-H460 lung
[8] = test system: SK-MEL-28 melanoma
[9] = test system: UACC-257 melanoma
[10] = test system: SNB-75 CNS

Row | Compound | TGI [1] | TGI [2] | TGI [3] | TGI [4] | TGI [5] | TGI [6] | TGI [7] | TGI [8] | TGI [9] | TGI [10] | GI50 [1] | GI50 [4] | GI50 [6] | GI50 [8] | GI50 [10] | GI50 [3] | GI50 [5] | GI50 [7] | GI50 [9]
1 | C=C1C(=O)O[C@@H]2/C=C(\C)CC/C=C(\C)CC[C@@]12O | 7.91 µM | 3.02 µM | 6.15 µM | 25.8 µM | 16.9 µM | 54.4 µM | 31.5 µM | 13.3 µM | 31.7 µM | – | – | – | – | – | – | – | – | – | –
2 | COC(=O)C1=C(C)N2CCSC2(C)C(C(=O)OC)C1c1cccc(Cl)c1 (stereo not drawn) | – | 49.3 µM | 45.6 µM | – | 73.2 µM | – | 74.5 µM | 46.9 µM | 21.7 µM | 42.9 µM | – | – | – | – | – | – | – | – | –
4 | CCN1c2cc(Br)cc3[nH]c(=O)n(c23)CCC1C (stereo not drawn) | 30.6 µM | 35.8 µM | 65.5 µM | 49.9 µM | > 100 µM | 49.4 µM | 35.9 µM | 65.8 µM | 40.6 µM | 32.4 µM | – | – | – | – | – | – | – | – | –
5 | Clc1cc(Cl)c2cc3cccc[n+]3cc2c1Cl | 39.5 µM | 29.7 µM | 31.3 µM | 38.7 µM | 28.7 µM | 30.1 µM | 32.2 µM | 29.9 µM | 28.9 µM | 24.7 µM | – | – | – | – | – | – | – | – | –
6 | CNC1Cc2c[nH]c3cccc(c23)C12C=C(C)C(=O)O2 (stereo not drawn) | > 100 µM | > 100 µM | > 100 µM | > 100 µM | > 100 µM | > 100 µM | > 100 µM | > 100 µM | > 100 µM | > 100 µM | – | – | – | – | – | – | – | – | –
7 | Nc1ccc(O)c2c1C(=O)c1c(N)ccc(O)c1C2=O | > 100 µM | > 100 µM | > 100 µM | > 100 µM | > 100 µM | > 100 µM | > 100 µM | > 100 µM | > 100 µM | > 100 µM | – | – | – | – | – | – | – | – | –
8 | Nc1[nH]c(=S)nc2nc3c(c(-c4ccccc4)c12)CCCC3 | > 100 µM | > 100 µM | > 100 µM | > 100 µM | > 100 µM | > 100 µM | > 100 µM | – | – | > 100 µM | – | – | – | – | – | – | – | – | –
9 | CC(C)(C)OC(=O)N1C(OP(=O)(Oc2ccccc2)Oc2ccccc2)=CSc2ccccc21 | > 100 µM | 43.1 µM | 66 µM | > 100 µM | > 100 µM | > 100 µM | > 100 µM | > 100 µM | > 100 µM | > 100 µM | – | – | – | – | – | – | – | – | –
10 | CC(C)(C)c1ccc2c(c1)C#Cc1cc(C(C)(C)C)ccc1OCCCO2 | > 100 µM | > 100 µM | > 100 µM | > 100 µM | > 100 µM | – | > 100 µM | > 100 µM | > 100 µM | – | – | – | – | – | – | – | – | – | –
11 | COc1cc(/C=C2\N=C(c3ccccc3)N(c3ccc(C(=O)c4ccccc4)cc3N3C(=O)/C(=C/c4ccc(O)c(OC)c4)N=C3c3ccccc3)C2=O)ccc1O | 62.7 µM | 16 µM | 15.3 µM | 95.5 µM | > 100 µM | 45 µM | 20.2 µM | 72.6 µM | 39.6 µM | 54.3 µM | – | – | – | – | – | – | – | – | –
12 | NC(CCOCCP(=O)(O)CCC1C=CC=CC1)C(=O)O (stereo not drawn) | > 100 µM | > 100 µM | > 100 µM | > 100 µM | > 100 µM | > 100 µM | > 100 µM | > 100 µM | > 100 µM | > 100 µM | – | – | – | – | – | – | – | – | –
13 | CCN(CC)CC[n+]1ccc2c(C)c3[nH]c4ccc(O)cc4c3c(C)c2c1 | 6.42 µM and 3.25 µM | 33.2 µM and 33.1 µM | 11 µM and 12.4 µM | 72.6 µM and 73.8 µM | 8.76 µM and 10.8 µM | 66.9 µM and 58.4 µM | 13.3 µM and 3.45 µM | 21.3 µM and 44.8 µM | 43.9 µM and 91.6 µM | 7.51 µM and 2.83 µM | 211 nM | – | 5940 nM | 9.07 µM | 523 nM | 181 nM | 634 nM | 147 nM | 24.2 µM
14 | OCC(O)CNc1ncnc2ccccc12 (stereo not drawn) | > 100 µM | > 100 µM | > 100 µM | > 100 µM | > 100 µM | > 100 µM | > 100 µM | > 100 µM | > 100 µM | > 100 µM | – | – | – | – | – | – | – | – | –
15 | CCOC(=O)CCC(C(=O)OCC)n1nc2ccc(Nc3c(C)[n+]([O-])c4cc(F)c(OCC)cc4[n+]3[O-])cc2n1 (stereo not drawn) | > 100 µM | > 100 µM | > 100 µM | > 100 µM | > 100 µM | > 100 µM | > 100 µM | – | > 100 µM | 32.9 µM | – | – | – | – | – | – | – | – | –
